Assay [1] has as its system ovarian cancer cells (PA-1). Briefly: Cancer cell line growth inhibition (SRB assay). It is filed as cell-based. To be noted: read-out: Cancer Cell Line GI50 Range PA-1. Background: The SRB assay estimates cell density from bound dye.
In assay [2] the target is T1, human TTK (Homo sapiens, UniProt P33981).
T1 construct: amino terminal GST fusion of full length human TTK; purchased Invitrogen
T1 sequence (P33981 1-857): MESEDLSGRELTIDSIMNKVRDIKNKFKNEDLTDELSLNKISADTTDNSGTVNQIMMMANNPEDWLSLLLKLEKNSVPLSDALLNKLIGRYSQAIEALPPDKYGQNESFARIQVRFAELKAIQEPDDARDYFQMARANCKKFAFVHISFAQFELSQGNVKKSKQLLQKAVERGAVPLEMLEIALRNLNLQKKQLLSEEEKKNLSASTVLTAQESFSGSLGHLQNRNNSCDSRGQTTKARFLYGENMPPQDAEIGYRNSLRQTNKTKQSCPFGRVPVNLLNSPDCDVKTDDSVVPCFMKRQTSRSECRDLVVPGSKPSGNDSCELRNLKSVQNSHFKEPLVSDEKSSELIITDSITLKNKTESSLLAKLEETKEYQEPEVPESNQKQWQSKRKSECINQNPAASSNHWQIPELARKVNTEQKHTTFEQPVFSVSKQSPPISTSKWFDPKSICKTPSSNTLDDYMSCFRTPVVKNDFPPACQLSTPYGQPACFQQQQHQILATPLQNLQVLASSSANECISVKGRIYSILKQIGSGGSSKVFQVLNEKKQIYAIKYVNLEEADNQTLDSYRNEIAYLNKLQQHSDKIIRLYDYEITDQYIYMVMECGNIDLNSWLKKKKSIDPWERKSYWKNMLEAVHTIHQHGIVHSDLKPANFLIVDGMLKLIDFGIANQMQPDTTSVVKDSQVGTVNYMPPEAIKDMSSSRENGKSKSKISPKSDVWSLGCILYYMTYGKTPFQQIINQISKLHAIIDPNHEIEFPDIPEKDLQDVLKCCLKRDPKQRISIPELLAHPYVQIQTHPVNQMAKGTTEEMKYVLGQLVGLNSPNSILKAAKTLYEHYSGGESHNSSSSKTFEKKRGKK
Kind of assay: TTK inhibition assay (indirect ELISA). It is filed as biochemical. The following applies: read-out: TTK IC50 Range. In general terms: An ELISA detects its analyte on a solid surface through an enzyme-linked reagent.

The subject of assay [3] is colon cancer cells (HCT116). Kind of assay: Cancer cell line growth inhibition (SRB assay). To be noted: read-out: Cancer Cell Line GI50 Range HCT116. It is filed as cell-based.
Setting [4] is: PA-1 ovarian cancer cells, SRB assay.
The mark [5] stands for this setting: Homo sapiens, HCT-116, HCT116 colon cancer cells, SRB assay.

The structures appear in SMILES notation. Like-named read-outs stand apart in the source and are kept apart here. Where only a bound is given, the exact number is not on record here.

The GI50 is the concentration giving 50% growth inhibition. As a reminder, the IC50 is the concentration needed to halve the response being measured. Turning to `O=CN1CCC(Oc2ccc(-c3n[nH]c4ccc(C(=O)NC(c5ccsc5)C5CCC5)cc34)cc2)CC1` (stereo not drawn) [Example A330, N-(cyclobutyl(thiophen-3-yl)methyl)-3-(4-((1-formylpiperidin-4-yl)oxy)phenyl)-1H-indazole-5-carboxamide], the 50% growth inhibitory concentration (GI50) in assay [1] (Homo sapiens, PA-1) is less than 100 nM; in assay [3] (Homo sapiens, HCT-116), less than 100 nM. The IC50 in assay [2] was less than 100 nM.
For `CCC(CC)(CNC(=O)c1ccc2[nH]nc(-c3ccc(OC4CCN(C5COC5)CC4)cc3)c2c1)N1CCOCC1` [Example A466, N-(2-ethyl-2-morpholinobutyl)-3-(4-((1-(oxetan-3-yl)piperidin-4-yl)oxy)phenyl)-1H-indazole-5-carboxamide], the GI50 in assay [1] (Homo sapiens, PA-1) is less than 100 nM; in assay [3] (Homo sapiens, HCT-116) it was 100 to 500 nM. In addition, in assay [2], the IC50 was less than 100 nM.
With `CC(C)(C)OC(=O)N1CCC(Oc2ccc(-c3n[nH]c4ccc(NC(=O)C(c5ccsc5)N5CCCC5)cc34)cc2)CC1` (stereo not drawn) [Example A115, tert-butyl 4-(4-(5-(2-(pyrrolidin-1-yl)-2-(thiophen-3-yl)acetamido)-1H-indazol-3-yl)phenoxy)piperidine-1-carboxylate], the concentration for 50% growth inhibition (GI50) in assay [1] (setting [4]) and in assay [3] (setting [5]) was more than 500 nM in each case. The concentration for half-maximal inhibition (IC50) in assay [2] fell in the range of 100 to 500 nM.
As for `CN1CCC(Oc2ccc(-c3n[nH]c4ccc(C(=O)NCC5(N6CCOCC6)CCC(F)(F)CC5)cc34)cc2)CC1` [Example A458, N-((4,4-difluoro-1-morpholinocyclohexyl)methyl)-3-(4-((1-methylpiperidin-4-yl)oxy)phenyl)-1H-indazole-5-carboxamide], the GI50 in assay [1] (setting [4]) and in assay [3] (setting [5]) was 100 to 500 nM in each case. In addition, the IC50 in assay [2] was less than 100 nM.
In the case of `O=C(NCC1(c2ccccc2)CCCCC1)c1ccc2[nH]nc(-c3ccc(N4CCOCC4)cc3)c2c1` [Example A469, 3-(4-morpholinophenyl)-N-((1-phenylcyclohexyl)methyl)-1H-indazole-5-carboxamide], the concentration for 50% growth inhibition (GI50) in assay [1] (setting [4]) and in assay [3] (setting [5]) was 100 to 500 nM in each case. Moreover, the half-inhibitory concentration (IC50) in assay [2] was less than 100 nM.
With `CN1CCN(C(=O)c2cccc(-c3n[nH]c4ccc(NC(=O)C(c5ccsc5)N5CCCC5)cc34)c2)CC1` (stereo not drawn) [Example A96, N-(3-(3-(4-Methylpiperazine-1-carbonyl)phenyl)-1H-indazol-5-yl)-2-(pyrrolidin-1-yl)-2-(thiophen-3-yl)acetamide], the GI50 in assay [1] (setting [4]) and in assay [3] (setting [5]) was more than 500 nM each time. The half-inhibitory concentration (IC50) in assay [2] is more than 500 nM.
As for `CN1CCC(Oc2ccc(-c3n[nH]c4ccc(C(=O)NCC5(c6ccccc6)CC5(C)C)cc34)cc2)CC1` (stereo not drawn) [Example A431, N-((2,2-dimethyl-1-phenylcyclopropyl)methyl)-3-(4-((1-methylpiperidin-4-yl)oxy)phenyl)-1H-indazole-5-carboxamide], the GI50 in assay [1] (setting [4]) and in assay [3] (setting [5]) was 100 to 500 nM in each case. In addition, the half-maximal inhibitory concentration (IC50) in assay [2] is less than 100 nM.
As for `Cc1ccccc1CC1(NC(=O)c2ccc3[nH]nc(-c4ccc(OC5CCN(C)CC5)cc4)c3c2)CC1` [Example A127, N-(1-(2-methylbenzyl)cyclopropyl)-3-(4-((1-methylpiperidin-4-yl)oxy)phenyl)-1H-indazole-5-carboxamide], the GI50 in assay [1] (setting [4]) and in assay [3] (setting [5]) was 100 to 500 nM in each case. Moreover, the IC50 in assay [2] was less than 100 nM.
`CC(C)CC(NC(=O)c1ccc2[nH]nc(-c3ccc(OC4CCN(C5COC5)CC4)cc3)c2c1)c1ccccc1` (stereo not drawn) [Example A290, N-(3-methyl-1-phenylbutyl)-3-(4-((1-(oxetan-3-yl)piperidin-4-yl)oxy)phenyl)-1H-indazole-5-carboxamide]: the GI50 was 100 to 500 nM in assay [1] (Homo sapiens, PA-1) and 100 to 500 nM in assay [3] (Homo sapiens, HCT-116). Besides, in assay [2], the IC50 is less than 100 nM.
For the compound `C[C@H](O)C(=O)N1CCC(Oc2ccc(-c3n[nH]c4ccc(C(=O)N[C@H](c5ccccc5)C5CC5)cc34)cc2)CC1` [Example A377, N-((S)-cyclopropyl(phenyl)methyl)-3-(4-((1-((S)-2-hydroxypropanoyl)piperidin-4-yl)oxy)phenyl)-1H-indazole-5-carboxamide], the GI50 was 100 to 500 nM in assay [1] (Homo sapiens, PA-1) and 100 to 500 nM in assay [3] (Homo sapiens, HCT-116). For the same compound, in assay [2], the IC50 was less than 100 nM.
As for `O=C(N[C@H](c1ccccn1)C1CCCC1)c1ccc2[nH]nc(-c3ccc(OC4CCN(CCO)CC4)cc3)c2c1` [Example A233, (S)-N-(cyclopentyl(pyridin-2-yl)methyl)-3-(4-((1-(2-hydroxyethyl)piperidin-4-yl)oxy)phenyl)-1H-indazole-5-carboxamide], the GI50 was less than 100 nM in assay [1] (Homo sapiens, PA-1) and less than 100 nM in assay [3] (Homo sapiens, HCT-116). Moreover, the IC50 in assay [2] is less than 100 nM.
As for `CC(C)C(NC(=O)c1ccc2[nH]nc(-c3ccc(OC4CC5CCC(C4)N5C)cc3)c2c1)c1ccccn1` (stereo not drawn) [Example A396, N-(2-methyl-1-(pyridin-2-yl)propyl)-3-(4-((8-methyl-8-azabicyclo [3.2.1]octan-3-yl)oxy)phenyl)-1H-indazole-5-carboxamide], the GI50 in assay [1] (PA-1) and in assay [3] (HCT116) was less than 100 nM in each case. Further, in assay [2], the concentration for half-maximal inhibition (IC50) was less than 100 nM.
On to `O=C(NC(c1ccccn1)C1CC1)c1ccc2[nH]nc(-c3ccc(N4CCN(CCO)CC4)cc3)c2c1` (stereo not drawn) [Example A384, N-(cyclopropyl(pyridin-2-yl)methyl)-3-(4-(4-(2-hydroxyethyl)piperazin-1-yl)phenyl)-1H-indazole-5-carboxamide], for which the GI50 in assay [1] (Homo sapiens, PA-1) lay within 100 to 500 nM; in assay [3] (Homo sapiens, HCT-116), 100 to 500 nM. Moreover, the concentration for half-maximal inhibition (IC50) in assay [2] was less than 100 nM.
`CC(C)[C@H](NC(=O)c1ccc2[nH]nc(-c3ccc(OC4CCN(CCO)CC4)cc3)c2c1)c1ccccc1Cl` [Example A232, (S)-N-(1-(2-chlorophenyl)-2-methylpropyl)-3-(4-((1-(2-hydroxyethyl)piperidin-4-yl)oxy)phenyl)-1H-indazole-5-carboxamide]: the GI50 in assay [1] (Homo sapiens, PA-1) is less than 100 nM; in assay [3] (Homo sapiens, HCT-116) it was less than 100 nM. In assay [2], the half-inhibitory concentration (IC50) is less than 100 nM.
Consider `O=C(NCC1(c2cccs2)CCOCC1)c1ccc2[nH]nc(-c3ccc(N4CCOCC4)cc3)c2c1` [Example A436, 3-(4-morpholinophenyl)-N-((4-(thiophen-2-yl)tetrahydro-2H-pyran-4-yl)methyl)-1H-indazole-5-carboxamide], for which the GI50 lay within 100 to 500 nM in assay [1] (Homo sapiens, PA-1) and 100 to 500 nM in assay [3] (Homo sapiens, HCT-116). The IC50 in assay [2] was less than 100 nM.
For the compound `C[C@@H](O)CN1CCC(Oc2ccc(-c3n[nH]c4ccc(C(=O)N[C@H](c5ccccn5)C5CCCC5)cc34)cc2)CC1` [Example A230, N-((S)-cyclopentyl(pyridin-2-yl)methyl)-3-(4-((1-((R)-2-hydroxypropyl)piperidin-4-yl)oxy)phenyl)-1H-indazole-5-carboxamide], the GI50 in assay [1] (Homo sapiens, PA-1) was less than 100 nM; in assay [3] (Homo sapiens, HCT-116), less than 100 nM. Moreover, the IC50 in assay [2] was less than 100 nM.
For the compound `CCC(CNC(=O)c1ccc2[nH]nc(-c3ccc(N4CCOCC4)cc3)c2c1)c1ccccc1` (stereo not drawn) [Example A407, 3-(4-morpholinophenyl)-N-(2-phenylbutyl)-1H-indazole-5-carboxamide], the 50% growth inhibitory concentration (GI50) in assay [1] (Homo sapiens, PA-1) was more than 500 nM; in assay [3] (Homo sapiens, HCT-116) it was more than 500 nM. Moreover, in assay [2], the IC50 is less than 100 nM.
With `CN1CC[C@@H](Oc2ccc(-c3n[nH]c4ccc(C(=O)NCC5(N6CCOCC6)CCCCC5)cc34)cc2)C1` [Example A481, (R)-3-(4-((1-methylpyrrolidin-3-yl)oxy)phenyl)-N-((1-morpholinocyclohexyl)methyl)-1H-indazole-5-carboxamide], the concentration for 50% growth inhibition (GI50) in assay [1] (setting [4]) and in assay [3] (setting [5]) was 100 to 500 nM in each case. In assay [2], the IC50 is less than 100 nM.
Regarding `CN1C2COCC1CC(Oc1ccc(-c3n[nH]c4ccc(C(=O)NC(c5ccccn5)C5CCCC5)cc34)cc1)C2` [Example A392, N-(cyclopentyl (pyridin-2-yl)methyl)-3-(4-(((1R,5S,7s)-9-methyl-3-oxa-9-azabicyclo [3.3.1]nonan-7-yl)oxy)phenyl)-1H-indazole-5-carboxamide], the 50% growth inhibitory concentration (GI50) in assay [1] (Homo sapiens, PA-1) is less than 100 nM; in assay [3] (Homo sapiens, HCT-116), less than 100 nM. Further, in assay [2], the half-inhibitory concentration (IC50) was less than 100 nM.
As for `O=C(NCC1(OC2CCCC2)CCCCC1)c1ccc2[nH]nc(-c3ccc(N4CCOCC4)cc3)c2c1` [Example A435, N-((1-(cyclopentyloxy)cyclohexyl)methyl)-3-(4-morpholinophenyl)-1H-indazole-5-carboxamide], the GI50 is more than 500 nM in assay [1] (Homo sapiens, PA-1) and more than 500 nM in assay [3] (Homo sapiens, HCT-116). The IC50 in assay [2] was less than 100 nM.
In the case of `COc1ccc(NC(=O)Nc2ccc3[nH]nc(-c4ccc(OC5CCN(C)CC5)cc4)c3c2)c(C)c1` [Example A81, 1-(4-methoxy-2-methylphenyl)-3-(3-(4-((1-methylpiperidin-4-yl)oxy)phenyl)-1H-indazol-5-yl)urea], the GI50 in assay [1] (setting [4]) and in assay [3] (setting [5]) was 100 to 500 nM in each case. In addition, the 50% inhibitory concentration (IC50) in assay [2] fell in the range of 100 to 500 nM.
